Results: patent US8227480B2, “Indazole derivative having spiro ring structure in side chain” (Ube Industries, Ltd., priority 2006, dated 2012)
Counter-ions that a name gives are not always drawn.

Experiments:
activated ROCK-II = molecular target: T1, activated ROCK-II (Rattus norvegicus, UniProt Q62868); assay: Test for Evaluation of Rho Kinase Inhibitory Activity; assay type: biochemical; settings: Ki=IC50/(1+S/Km); [γ-32P]ATP, S6 kinase substrate peptide, 30° C. for 15 minutes
T1 construct: purchased Upstate Biotechnology 14-338
T1 sequence (Q62868 11-552 limits assumed): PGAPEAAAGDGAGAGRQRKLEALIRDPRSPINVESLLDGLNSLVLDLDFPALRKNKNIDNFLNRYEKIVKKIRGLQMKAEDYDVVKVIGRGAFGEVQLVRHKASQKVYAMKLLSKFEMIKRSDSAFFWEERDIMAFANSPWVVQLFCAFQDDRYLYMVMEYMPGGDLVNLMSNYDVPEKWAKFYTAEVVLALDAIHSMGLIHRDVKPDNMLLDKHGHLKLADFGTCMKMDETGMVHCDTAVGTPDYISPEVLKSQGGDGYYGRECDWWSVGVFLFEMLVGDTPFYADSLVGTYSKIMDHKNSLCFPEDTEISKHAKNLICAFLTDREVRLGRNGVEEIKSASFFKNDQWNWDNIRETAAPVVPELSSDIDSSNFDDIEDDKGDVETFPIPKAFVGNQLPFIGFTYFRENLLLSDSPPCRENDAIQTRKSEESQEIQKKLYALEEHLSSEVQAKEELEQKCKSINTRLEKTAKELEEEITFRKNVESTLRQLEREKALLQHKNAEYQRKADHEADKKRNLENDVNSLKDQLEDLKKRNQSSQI
Experimental: In order to find the usefulness of the present invention compound, a Rho kinase inhibitory activity of the present invention compound was evaluated and studied. The details of the evaluation and study will be illustrated in the “section of Pharmacological Test (Test for Evaluation of Rho Kinase Inhibitory Activity)” in the Examples which will be mentioned later. The evaluation and study of the Rho kinase inhibitory activity of the present invention compound were carried out in accordance with the method described in J. Biol. Chem., 274, 32418 (1999) and the method described in the instruction manual for use attached to the commercially available activated ROCK-II [Upstate Biotechnology, Catalog No. 14-338 (5 units/50 μl)].
In order to study the usefulness of the present invention compound as a Rho kinase inhibitor, in accordance with the method described in J. Biol. Chem., 274, 32418 (1999) and the method described in the instruction manual for use attached to the commercially available activated ROCK-II [Upstate Biotechnology, Catalog No. 14-338 (5 units/50 μl)], the Rho kinase inhibitory activity of the present invention compound was evaluated and studied. As a test compound, Example compound 2 was used. […]
7) The filter paper is dipped in ethanol and then dried. Thereafter, the amount of phosphorylated substrate is measured using a liquid scintillation counter. […]

cynomolgus monkeys = assay: Test for Measurement of Intraocular Pressure-Reducing Activity; assay type: in vivo; settings: male cynomolgus monkeys, 0.1% test compound solution instilled into one eye, measured at 2, 4 and 6 hours after instillation, versus vehicle control
Excerpt: Further, in order to verify the application of the present invention compound to a specific disease associated with Rho kinase, the intraocular pressure-reducing activity of the present invention compound was also studied. The details of the study will be illustrated in the “section of Pharmacological Test (Test for Measurement of Intraocular Pressure-Reducing Activity)” in the Examples which will be mentioned later.
In order to study the usefulness of the present invention compound as a therapeutic agent for glaucoma, an intraocular pressure-reducing effect in the case where the present invention compound was administered to cynomolgus monkeys (sex: male; one group consisting of 4 to 5 monkeys) was evaluated and studied. As a test compound, Example compound 2 (hereinafter referred to as the test compound) was used. […]
2) The intraocular pressure was measured immediately before administration of the test compound solution, which was defined as the initial intraocular pressure. […]
4) At 2, 4 and 6 hours after instillation of the test compound solution, one drop of a 0.4% oxybuprocaine hydrochloride eye drop was instilled into both eyes to achieve local anesthesia and then the intraocular pressure was measured. Measurement of the intraocular pressure for each time was carried out three times and a mean value thereof was calculated. […]

| melting point | Ki (activated ROCK-II) | SMILES | intraocular pressure-reducing activity (change from the initial intraocular pressure, FIG. 1) (cynomolgus monkeys) |
| --- | --- | --- | --- |
| > 300 °C (dec.) |  | NC1(c2ccc(-c3ccc4[nH]ncc4c3C3CC3)nc2)CC2(CC2)C1 (as salt: hydrochloride) [Example compound 2, 5-{5-(5-amino-spiro[2,3]hex-5-yl)pyridin-2-yl}}-4-cyclopropyl-1H-indazole Dihydrochloride] |  |
| 199 to 202 °C |  | CC(C)(C)OC(=O)NC1(c2ccc(-c3ccc4c(cnn4C4CCCCO4)c3C3CC3)nc2)CC2(CC2)C1 (stereo not shown) [Example compound 1] |  |
|  | 3.5 nM | NC1(c2ccc(-c3ccc4[nH]ncc4c3C3CC3)nc2)CC2(CC2)C1 [Example compound 2, 5-{5-(5-amino-spiro[2,3]hex-5-yl)pyridin-2-yl}}-4-cyclopropyl-1H-indazole Dihydrochloride] | excellent intraocular pressure-reducing activity |
